# “Also recorded” adds a separate entry of the source. Positions of bridges follow the written chain, without caps; N, C: chain ends. Non-standard residues stand in square brackets, D forms with d. No end group written: not given here.
# Tests used:
# whole blood cells = experiment: Whole cell bead binding assay, whole blood cells; set-up: species or system human; conditions: peptide on beads
# fibroblasts = experiment: Whole cell bead binding assay, fibroblasts; conditions: peptide on beads
# [1] = target: T1, K562 cells transfected with a503 integrin (Homo sapiens, UniProt P05106+P06756); experiment: Bead binding to K562 cells transfected with integrin; conditions: OBOC beads bearing PLZ4
# T1 construct: expressed in transfected cells; host or cells: K562
# Procedure: Here, OBOC beads bearing PLZ4 peptides on the surface were incubated with K562 cells transfected with various integrins. K562 cells express endogenous a501 integrin. […] Several other ligands obtained from the initial screening also contain the DGR motif. […] To identify which amino acids are involved in determining cell binding and binding specificity, “alanine walk” was performed combined with the rainbow bead coding methods (Luo, et al., J Comb Chem, (2008) 10: 599-604). The amino acids aspartic acid (D, the X2 position), arginine (R, X4) and phenylalanine (F, X7) are important for cell binding. Replacement of any of these amino acids with alanine completely abolished the binding of the peptides to 5637 cells (FIG. 6B). […] Methionine at the X5 position could be replaced to many other amino acids without compromising the binding affinity. Based on this analysis, the three amino acids (D, G and R) at the N-terminus together with the two amino acids (G and F) at the C-terminus determine the binding specificity. Therefore, the binding pocket may be in the clover shape: one for the N-terminal three amino acids, one for the C-terminal two amino acids and a middle pocket. So w the depth of the middle binding pocket by adding different numbers of glycine residue to the X5 position. […]
# [2] = system: 12 cell lines with different origins; experiment: Whole cell bead binding assay, 12 cell lines of different origins; set-up: species or system human
# [3] = system: bladder lymphoid hyperplasia specimen; experiment: Binding to canine bladder lymphoid hyperplasia specimen; conditions: data not shown
# 5637 cells = experiment: Flow cytometry binding affinity on 5637 cells; set-up: species or system human; conditions: PLZ4-biotin with streptavidin-PE
# Procedure: All of the following steps were done on ice. 5×10^5 5637 cells were washed 3 times with 1 ml cold PBS (pH 7.4)-BSA (1%), re-suspended with 300 μl cold BSA (5%)-PBS (pH 7.4), and then incubated for 1 hour on ice. The cells were centrifuged and suspended with 50 μl PLZ4-biotin solution at 800, 400, 200, 100, 50, 25, 10, 5, 2.5, 1, 0.1, and 0 μM, and incubated for 1 hour on ice. Cells treated without PLZ4-biotin was considered as a control. After washing 6 times with 1 ml cold PBS-Tween-20 (0.05%) buffer, cells were re-suspended with 50 μl streptavidin (SA)-PE (1:500 in PBS-BSA, 1%) (1 mg/ml, Invitrogen, Carlsbad, Calif.), incubated for 1 hour on ice, washed with PBS (pH 7.4) 3 times, re-suspended with 500 μl PBS (pH 7.4), and analyzed using a Coulter Epics XL-MCL flow cytometer (Beckman Coulter, Inc.). The experiment was repeated three times. The mean value was expressed in FIG. 4.
# Next, it was determined if fluorescence cell sorting could be used to identify bladder cancer cells. PLZ4 peptide conjugated to biotin through hydrophilic linkers was synthesized. Biotinylated PLZ4 was then incubated with streptavidin-PE to generate PLZ4-PE conjugate through the strong binding of biotin and streptavidin. […] The binding affinity (Kd) is around 30 μM.
# [4] = system: K9TCC, K9TCC-PU-In and K9TCC-PU-Nk cells; experiment: WST-8 cell proliferation assay; type: cell-based, canine; conditions: 48 hours, various concentrations, compared with PBS control
# Procedure: FIG. 8A-B. Binding affinity and biological effects of PLZ4 against canine TCC cell lines. A. Binding affinity of PLZ4 against K9TCC-PU and K9TCC-PU-In. Twenty thousands of K9TCC-PU and K9TCC-PU-In were seeded in 96 well plates. After culture for 24 hours, cells were fixed and incubated with different concentrations of PLZ4-biotin for 1.5 hours following avidin-HRP for another 1 hour. Cells treated with avidin-HRP only were served as background control. The color was developed using TMB substrate and read by ELISA readers. The experiment was performed in triplicates and repeated for 3 times. The mean value of the 3 experiments were shown. B. Biological effects of PLZ4 on canine TCC cell lines. Ten thousand K9TCC-PU-In and K9TCC-PU cells were seeded in the 96 well plates and treated with increasing concentrations of PLZ4 or PBS for 2 days. The cell proliferation assay was assessed by WST-8 assay per manufacturer's protocol. Cells treated with PBS were used as 100% control. Each group was performed in triplicate, repeated for 3 times. Mean values at each concentration are presented.
# Ligand binding on the cell surface molecules may initiate cell signaling and exert biological effects on cells. The effect of PLZ4 on cell viability and proliferation was determined, as it may have potential clinical applications. […]
# K9TCC cells = experiment: Whole cell binding assay of Example 2, canine TCC cells; conditions: PLZ4 beads, 10^6 cells/ml
# Procedure: This experiment was repeated 3 times for cell lines. […] 5637 human bladder cancer cell line; b. […] The average diameter of the beads is 90 μm. […] This experiment was repeated for 3 times. (200×)
# To determine the binding of PLZ4 to canine TCC cell lines, whole cell binding assay was performed. PLZ4 was synthesized on TentaGel S NH2 resin beads (Rapp Polymere Gmbh, Germany) (Pegram, et al., J Clin Oncol (1998) 16:2659-2671), and incubated with single suspensions of five different canine carcinoma cell lines including K9TCC-PU, K9TCC-PU-AxA, K9TCC-PU-In, K9TCC-PU-AxC, and K9TCC-PU-Nk (kindly provided by Deborah Knapp at Purdue University, West Lafayette, Ind., USA) at 10^6 cells/ml. The negative control was normal urothelial cells obtained from dogs that were euthanized due to non-bladder-related disorders. Human bladder cancer cell line, 5637 were served as the positive control. If PLZ4 bound to cells in suspension, then the bead surface was covered with cells. Over 95% of the bead surface was covered with 5637 and K9TCC cells (FIG. 7A-a and b, respectively).
# T1 sequence (P06756 31-889 limits assumed): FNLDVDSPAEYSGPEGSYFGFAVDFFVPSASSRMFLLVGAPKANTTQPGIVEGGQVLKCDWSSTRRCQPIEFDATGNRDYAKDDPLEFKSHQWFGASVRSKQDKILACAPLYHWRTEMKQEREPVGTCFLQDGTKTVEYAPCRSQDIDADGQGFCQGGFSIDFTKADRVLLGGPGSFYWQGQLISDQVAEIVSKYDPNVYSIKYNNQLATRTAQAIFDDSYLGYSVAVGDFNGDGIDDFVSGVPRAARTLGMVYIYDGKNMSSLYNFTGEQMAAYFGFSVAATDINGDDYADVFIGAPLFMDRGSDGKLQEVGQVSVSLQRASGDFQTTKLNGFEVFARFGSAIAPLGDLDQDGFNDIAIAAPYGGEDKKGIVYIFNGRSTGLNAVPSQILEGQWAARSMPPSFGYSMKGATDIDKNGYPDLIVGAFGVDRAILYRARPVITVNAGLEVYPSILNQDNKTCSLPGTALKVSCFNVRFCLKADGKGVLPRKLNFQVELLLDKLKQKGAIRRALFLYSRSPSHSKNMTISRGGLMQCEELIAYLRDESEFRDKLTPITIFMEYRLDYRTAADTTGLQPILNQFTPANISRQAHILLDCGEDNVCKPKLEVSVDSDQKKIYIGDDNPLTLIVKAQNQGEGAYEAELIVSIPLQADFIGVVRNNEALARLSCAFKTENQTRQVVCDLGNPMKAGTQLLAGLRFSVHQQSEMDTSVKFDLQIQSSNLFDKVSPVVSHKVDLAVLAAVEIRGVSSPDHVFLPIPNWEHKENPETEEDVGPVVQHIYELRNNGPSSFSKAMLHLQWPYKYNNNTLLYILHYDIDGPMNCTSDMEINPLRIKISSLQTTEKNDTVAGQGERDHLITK
# T1 sequence (P06756 891-1048 partner limits assumed): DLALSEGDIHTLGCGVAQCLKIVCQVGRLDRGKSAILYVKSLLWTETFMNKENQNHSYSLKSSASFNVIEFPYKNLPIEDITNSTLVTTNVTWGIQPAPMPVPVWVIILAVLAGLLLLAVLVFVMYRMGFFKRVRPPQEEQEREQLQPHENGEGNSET
# T1 sequence (P05106 27-788): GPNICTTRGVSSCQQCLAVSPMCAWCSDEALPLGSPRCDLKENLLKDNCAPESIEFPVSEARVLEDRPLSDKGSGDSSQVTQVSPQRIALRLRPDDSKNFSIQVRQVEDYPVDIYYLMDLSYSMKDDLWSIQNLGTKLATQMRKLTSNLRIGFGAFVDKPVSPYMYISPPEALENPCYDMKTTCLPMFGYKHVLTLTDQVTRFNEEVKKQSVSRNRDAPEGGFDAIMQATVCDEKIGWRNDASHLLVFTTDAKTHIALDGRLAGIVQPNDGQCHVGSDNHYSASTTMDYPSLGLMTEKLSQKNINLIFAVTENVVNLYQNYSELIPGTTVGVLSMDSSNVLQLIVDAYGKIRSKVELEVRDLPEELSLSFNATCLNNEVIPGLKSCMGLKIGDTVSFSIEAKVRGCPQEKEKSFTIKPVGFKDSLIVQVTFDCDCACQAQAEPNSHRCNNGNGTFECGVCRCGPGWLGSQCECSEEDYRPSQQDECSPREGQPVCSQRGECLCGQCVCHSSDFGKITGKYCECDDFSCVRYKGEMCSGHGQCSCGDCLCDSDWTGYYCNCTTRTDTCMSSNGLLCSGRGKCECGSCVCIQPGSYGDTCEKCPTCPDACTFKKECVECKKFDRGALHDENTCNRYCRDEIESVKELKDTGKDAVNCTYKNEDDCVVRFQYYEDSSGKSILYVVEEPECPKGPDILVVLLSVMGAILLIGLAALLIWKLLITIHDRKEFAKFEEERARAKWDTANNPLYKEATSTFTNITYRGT
substance,measurement,setting,value
"cQDGRMGFc ([dC]QDGRMGF[dC]; disulfide 1-9 (inferred)) [PLZ4, bladder cancer-specific ligand peptide]",binding to whole blood cells,whole blood cells,did not bind
same,binding to fibroblasts,fibroblasts,did not bind
same,binding to K562 cells transfected with a503 integrin,[1],bound
same,binding to 12 cell lines with different origins,[2],did not bind to 10 out of 12 cell lines; also recorded: only bought to one of 12
same,binding to a bladder lymphoid hyperplasia specimen,[3],not to a bladder lymphoid hyperplasia specimen
same,Kd,5637 cells,~30 µM
same,cell proliferation/viability,[4],no significant changes in cell proliferation/viability
same,bead surface covered with cells,K9TCC cells,Over 95%

# Reference: patent US10335365B2, “Bladder cancer specific ligand peptides” (The Regents of the University of California, priority 2009, dated 2019)
